Laboratory results as given in PMC11988671, “SIRT7 Is a Lysine Deacylase with a Preference for Depropionylation and Demyristoylation” (International Journal of Molecular Sciences, 2025).
Values joined by “and” are separate entries in the source; they are usually repeats but may differ in a detail not shown here. Equal values may be shown once.

How the values were obtained:
[1] = system: Cd36 and Cidec expression in Hepa1–6 cells; assay: Cellular gene expression (real-time quantitative PCR); type: cell-based; conditions: FK866 8 nM, 48 h
Procedure: Hepa1–6 cells were exposed to 8 nM FK866 for 48 h, and the cells were incubated without fetal bovine serum for the final 24 h of treatment. Subsequently, total RNA was extracted from the cells utilizing the Sepasol RNA I Super Reagent (Nacalai Tesque). Quantitative reverse transcription (RT)-PCR was conducted using a PrimeScript RT Reagent Kit (RR047A; TaKaRa Bio, Inc., Kusatsu, Japan) followed by TB Green Premix Ex TaqII (RR820A; TaKaRa Bio, Inc.) and an ABI ViiA 7 Real-Time PCR System (Applied Biosystems, Inc., Foster City, CA, USA). The relative expression level of each gene was normalized to that of TATA box-binding protein (Tbp). The following primer sequences were used: Cd36, forward 5′-TTGGCCAAGCTATTGCGACA-3′ and reverse 5′-CTGGAGGGGTGATGCAAAGG-3′; Cidec, forward 5′-GCTGAAGGGGCAGAAGTGGA-3′ and reverse 5′-GCGCTTGGCCTTGTAGCAGT-3′; and Tbp, forward 5′-CCCCTTGTACCCTTCACCAAT-3′ and reverse 5′-GAAGCTGCGGTACAATTCCAG-3′.

[2] = system: SIRT1-dependent PPARα deacetylation in HEK293T cells; assay: SIRT1-dependent PPARα deacetylation (IP and Western blot); type: cell-based; conditions: FK866 500 pM
Procedure: (§1) HEK293T cells were treated with FK866 or DMSO for 24 h and transfected with the indicated plasmids using JetPRIME reagents (Polypus, Illkirch-Graffenstaden, France) for an additional 24 h. The cells were lysed in IP buffer (20 mM Tris-HCl pH 7.4, 200 mM NaCl, 2.5 mM MgCl2, 0.05% NP-40, 1 mM PMSF, and protease inhibitor cocktail (Nacalai Tesque)) supplemented with 5 mM NAM and 2.5 µM trichostatin A. The lysate was incubated on ice for 20 min and subsequently sonicated twice at 4 °C with a 20 s interval at 26% amplitude using a Sonifier SFX-150 (Branson Ultrasonics) to disrupt the cells. Following sonication, the lysate was centrifuged at 14,000× g for 15 min at 4 °C to separate cellular debris. For immunoprecipitation, 2 mg protein from each sample was incubated with anti-HA- or anti-DYKDDDDK (FLAG)-tagged beads (Fujifilm Wako Pure Chemical Corp.) for 18 h at 4 °C with gentle rotation. After washing with IP buffer, the proteins were eluted in SDS sample buffer, and lysine acetylation was detected by Western blot with an anti-acetylated lysine antibody.
(§2) For Western blot, proteins were separated by SDS-PAGE and transferred to an Immobilon-P PVDF membrane (Merck Millipore, Burlington, MA, USA), which was probed with primary and secondary antibodies. […]

[3] = system: SIRT7-dependent DDB1 deacetylation in HEK293T cells; assay: SIRT7-dependent DDB1 deacetylation (IP and Western blot); type: cell-based; conditions: FK866 500 pM
Procedure: as §1, §2

HEK293T cells = assay: NAD^+ assay in cells treated with FK866; type: cell-based
Procedure: HEK293T and Hepa1–6 cells were treated with the NAMPT inhibitor FK866 (500 pM and 8 nM, respectively), and NAD^+ and total NAD^+/NADH cellular levels were determined using an NAD^+/NADH Assay Kit-WST (#N509; Dojindo Laboratories, Kumamoto, Japan). Total NAD^+/NADH and NADH concentrations in one sample were calculated from the calibration curve, then the NAD^+ level was determined by subtracting the NADH value from the total NAD^+/NADH level.

SIRT7 [4] = target: T1, SIRT7 (Mus musculus, UniProt Q8BKJ9); assay: In vitro deacylation assay of acyl-modified H3K18 peptides by SIRT7 (LC-MS/MS); type: biochemical; set-up: HaloTag (N, cleaved yes); made in house; host or cells: E. coli K12 KRX; conditions: 8 μM peptide (glutaryl 100 µM), 1.0 mM NAD^+, RNA, 24 h, 37 °C
T1 sequence (Q8BKJ9 1-402): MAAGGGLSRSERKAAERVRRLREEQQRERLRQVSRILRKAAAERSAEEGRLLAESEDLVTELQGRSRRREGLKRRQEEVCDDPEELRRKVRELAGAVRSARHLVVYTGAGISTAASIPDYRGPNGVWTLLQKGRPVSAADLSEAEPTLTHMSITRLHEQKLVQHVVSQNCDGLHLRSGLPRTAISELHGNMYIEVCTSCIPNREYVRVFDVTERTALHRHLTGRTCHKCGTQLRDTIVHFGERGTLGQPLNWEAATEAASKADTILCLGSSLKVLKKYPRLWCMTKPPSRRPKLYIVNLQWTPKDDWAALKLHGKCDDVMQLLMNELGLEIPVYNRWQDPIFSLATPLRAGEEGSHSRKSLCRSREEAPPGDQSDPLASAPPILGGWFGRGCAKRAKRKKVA
Procedure: (§3) In the case of the SIRT1 enzymatic reaction, 8 µM peptide was incubated in 50 µL reaction buffer containing 10 mM NaCl, 10 mM KCl, 20 mM Tris-HCl pH 8.0, 1.0 mM NAD^+, and 1 mM DTT, with or without 1 µg recombinant SIRT1. The reaction mixtures were incubated for 24 h for SIRT7 or 2 h for SIRT1 at 37 °C.
(§4) The general conditions for electrospray ionization-MS were as follows: nebulizer gas, N2, delivered at 50 psi; nebulizer gas temperature, 250 °C; capillary voltage, 3500 V; and collision gas, G1 grade N2 (Taiyo Nippon Sanso Corporation, Tokyo, Japan).

SIRT7 [5] = target: T1, SIRT7; assay: NAM inhibition assay (in vitro deacylation, LC-MS/MS); conditions: for IC50: IC50, NAM (relative IC50), wild-type SIRT7
SIRT4 = system: SIRT4; set-up: method as in PMID 23746352; conditions: read-out: Km of SIRT4 for NAD^+; cited from earlier work
SIRT7-DNA and SIRT7-RNA = system: SIRT7-DNA and SIRT7-RNA; set-up: method as in PMID 35939806; conditions: compared with own H3K18Ac value in presence of RNA; read-out: Km, NAD^+ for SIRT7, previously reported value; cited from earlier work
SIRT1 [6] = conditions: compared with own H3K9Ac value; read-out: Km, NAD^+ for SIRT1, value reported previously; cited from earlier work
SIRT5 = system: SIRT5; set-up: method as in PMID 23028781; conditions: read-out: Km of SIRT5 for NAD^+; cited from earlier work
SIRT1 [7] = target: T2, SIRT1 (Mus musculus, UniProt Q923E4); assay: In vitro deacetylation assay of H3K9Ac peptide by SIRT1 (LC-MS/MS); type: biochemical; conditions: 8 µM peptide, 1.0 mM NAD^+, 2 h, 37 °C
T2 construct: HaloTag (N, cleaved yes); made in house; host or cells: E. coli K12 KRX
T2 sequence (Q923E4 1-737): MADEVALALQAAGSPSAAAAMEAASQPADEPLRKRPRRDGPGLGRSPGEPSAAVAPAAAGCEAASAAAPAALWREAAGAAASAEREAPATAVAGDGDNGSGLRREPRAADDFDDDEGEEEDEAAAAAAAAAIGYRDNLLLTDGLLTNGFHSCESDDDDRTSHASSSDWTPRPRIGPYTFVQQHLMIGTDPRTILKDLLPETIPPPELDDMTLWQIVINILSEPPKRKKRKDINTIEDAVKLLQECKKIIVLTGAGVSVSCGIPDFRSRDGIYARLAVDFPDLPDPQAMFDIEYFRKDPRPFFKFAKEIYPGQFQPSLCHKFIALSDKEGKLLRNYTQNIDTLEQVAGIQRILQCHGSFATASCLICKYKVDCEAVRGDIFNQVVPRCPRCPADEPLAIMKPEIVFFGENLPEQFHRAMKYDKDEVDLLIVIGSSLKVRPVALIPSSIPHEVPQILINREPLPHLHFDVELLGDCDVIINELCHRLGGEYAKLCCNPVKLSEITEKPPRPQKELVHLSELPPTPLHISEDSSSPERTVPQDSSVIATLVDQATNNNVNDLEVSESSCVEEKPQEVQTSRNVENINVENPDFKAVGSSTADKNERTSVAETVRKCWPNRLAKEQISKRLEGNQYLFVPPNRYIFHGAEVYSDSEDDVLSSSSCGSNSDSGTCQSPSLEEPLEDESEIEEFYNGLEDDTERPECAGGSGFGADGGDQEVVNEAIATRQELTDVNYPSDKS
Procedure: as §3, §4

[8] = succinyl H3K18 peptide substrate

O=C(/C=C/c1cccnc1)NCCCCC1CCN(C(=O)c2ccccc2)CC1 [FK866]
Cd36 expression [1]: significantly decreased | Cidec expression [1]: significantly decreased | Deacetylation of PPARα by SIRT1 [2]: not abolished | SIRT7-mediated DDB1 deacetylation [3]: abolished | Cellular NAD^+ levels (HEK293T cells): decreased

NH2-KSTGGKAPRK^MyristoylQLATKAARKS-COOH [myristoyl H3K18 peptide]
Hydrolysis of acyl H3K18 peptide by SIRT7 (SIRT7 [4]): catalyzed the hydrolysis

NH2-KSTGGKAPRK^SuccinylQLATKAARKS-COOH [succinyl H3K18 peptide]
Hydrolysis of acyl H3K18 peptide by SIRT7 (SIRT7 [4]): catalyzed the hydrolysis

NH2-KSTGGKAPRK^GlutarylQLATKAARKS-COOH [glutaryl peptide]
Hydrolysis of acyl H3K18 peptide by SIRT7 (SIRT7 [4]): not detected

NC(=O)c1cccnc1 [NAM, Nicotinamide]
IC50 (SIRT7 [5]; acetyl H3K18 peptide substrate): 23 µM and 23.2 µM | IC50 (SIRT7 [5]; butyryl H3K18 peptide substrate): 613 ± 63.8 µM | IC50 (SIRT7 [5]; myristoyl H3K18 peptide substrate): 286 ± 25.1 µM | IC50 (SIRT7 [5]; octanoyl H3K18 peptide substrate): 1110 ± 216 µM | IC50 (SIRT7 [5]; palmitoyl H3K18 peptide substrate): 544 ± 83.7 µM | IC50 (SIRT7 [5]; propionyl H3K18 peptide substrate): 787 ± 118 µM | IC50 (SIRT7 [5]; [8]): 1230 ± 268 µM | NAM inhibition of the desuccinylation reaction (SIRT7 [5]; [8]): did not completely inhibit

NH2-KSTGGKAPRK^ButyrylQLATKAARKS-COOH [butyryl H3K18 peptide]
Hydrolysis of acyl H3K18 peptide by SIRT7 (SIRT7 [4]): catalyzed the hydrolysis

NH2-KSTGGKAPRK^OctanoylQLATKAARKS-COOH [octanoyl H3K18 peptide]
Hydrolysis of acyl H3K18 peptide by SIRT7 (SIRT7 [4]): catalyzed the hydrolysis

NC(=O)c1ccc[n+]([C@@H]2O[C@H](COP(=O)([O-])OP(=O)(O)OC[C@H]3O[C@@H](n4cnc5c(N)ncnc54)[C@H](O)[C@@H]3O)[C@@H](O)[C@H]2O)c1 [NAD^+, Nicotinamide adenine dinucleotide]
Km (SIRT4): 35 µM | Km (SIRT7-DNA and SIRT7-RNA): 480 µM | Km (SIRT1 [6]): 29 µM | Km (SIRT5): 980 µM

NH2-ARTKQTARK^AcetylSTGGKAPRKQLC-COOH [H3K9Ac]
Loss of H3K9Ac peptide and formation of deacetylated H3K9 peptide with recombinant SIRT1 (SIRT1 [7]): detected
